We go through 36 molecules from US20240383908A1, “SYNTHESIS AND APPLICATION OF PHOSPHATASE DEGRADER” (HINOVA PHARMACEUTICALS INC., priority 2021, published 2024).

The structures appear in SMILES notation.

This assay has as its target T1, SHP2 protein (Homo sapiens, UniProt Q06124).
T1 sequence (Q06124 1-593): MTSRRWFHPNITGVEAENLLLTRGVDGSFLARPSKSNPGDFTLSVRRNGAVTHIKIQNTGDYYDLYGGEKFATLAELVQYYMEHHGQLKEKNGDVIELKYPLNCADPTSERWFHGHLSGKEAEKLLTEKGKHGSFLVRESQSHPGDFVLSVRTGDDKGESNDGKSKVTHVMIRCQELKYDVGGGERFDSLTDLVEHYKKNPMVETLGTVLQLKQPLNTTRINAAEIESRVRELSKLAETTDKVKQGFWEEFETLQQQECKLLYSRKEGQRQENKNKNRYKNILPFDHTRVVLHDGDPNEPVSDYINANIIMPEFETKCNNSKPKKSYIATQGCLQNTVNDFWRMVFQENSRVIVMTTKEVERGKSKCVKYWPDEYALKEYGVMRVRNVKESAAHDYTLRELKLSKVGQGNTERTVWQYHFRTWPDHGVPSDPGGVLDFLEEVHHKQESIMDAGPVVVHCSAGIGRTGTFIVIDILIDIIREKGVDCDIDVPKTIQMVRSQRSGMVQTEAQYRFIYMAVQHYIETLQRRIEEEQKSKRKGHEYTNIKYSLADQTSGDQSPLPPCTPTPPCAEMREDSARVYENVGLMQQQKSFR
Description: Degradation activity on SHP2 protein in MIA Paca-2 cells (Western blot, DC50). The class given is cell-based. Further details: endogenous in cells; host or cells: MIA Paca-2 cells. As to conditions: read-out: Degradation activity for differenct cell lines MIA Paca-2 (DC50). The essentials: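 Cells were treated 24 h at 37 °C with compound (0.1–100 nM final, 0.1% DMSO). SHP2 was measured by Western blot with GAPDH as loading control, densitometry normalized to DMSO (100%). DC50, the concentration giving 50% degradation, came from a dose-response fit.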
In general terms: A western blot detects proteins with antibodies after separation by electrophoresis.
One may read the DC50 as the midpoint of the concentration-degradation curve. `CC1(N)CCN(c2cnc(Sc3cccc(NC(=O)c4ccc(N5CCC(N6CC=C(c7ccc(C(=O)NCc8ccc9c(c8)CN(C8CCC(=O)NC8=O)C9=O)nn7)CC6)C5)cc4)c3)cn2)CC1` (stereo not drawn) [Compound 402]: the DC50 was less than 0.1 µM.

In the case of `CC1(N)CCN(c2cnc(Sc3cccc(NC(=O)c4cc(N5CCC(N6CC=C(c7ccc(C(=O)NCc8ccc9c(c8)CN(C8CCC(=O)NC8=O)C9=O)nn7)CC6)CC5)cs4)c3)cn2)CC1` (stereo not drawn) [Compound 404], the DC50 is greater than 1 µM.

With `CC1(N)CCN(c2cnc(-c3cccc(NC(=O)c4ccc(N5CCC(N6CC=C(c7ccc(C(=O)NCc8ccc9c(c8)CN(C8CCC(=O)NC8=O)C9=O)nn7)CC6)CC5)cc4)c3)cn2)CC1` (stereo not drawn) [Compound 407], the DC50 is greater than 1 µM.

`CC1(N)CCN(c2ccc(-c3cccc(NC(=O)c4ccc(N5CCC(N6CC=C(c7ccc(C(=O)NCc8ccc9c(c8)CN(C8CCC(=O)NC8=O)C9=O)nn7)CC6)CC5)cc4)c3)cn2)CC1` (stereo not drawn) [Compound 408]: the 50% degradation concentration (DC50) was greater than 1 µM.

Turning to `C[C@@H]1OCC2(CCN(c3cnc(Sc4cccc(NC(=O)c5ccc(N6CCC(N7CC=C(c8ccc(C(=O)NCc9ccc%10c(c9)CN(C9CCC(=O)NC9=O)C%10=O)nc8)CC7)CC6)cc5)c4)cn3)CC2)[C@@H]1N` (stereo partly drawn) [Compound 411], the DC50 is less than 0.1 µM.

On to `CC1(N)CCN(c2cnc(Sc3cccc(NC(=O)c4ccc(N5CCC(N6CC=C(c7cnc(C(=O)NCc8ccc9c(c8)CN(C8CCC(=O)NC8=O)C9=O)c(Cl)c7)CC6)CC5)c(F)c4)c3)cn2)CC1` (stereo not drawn) [Compound 413], for which the DC50 is less than 0.1 µM.

For the molecule `CC1(N)CCN(c2cnc(Sc3cccc(NC(=O)c4ccc(-c5ccc(N6CCC7(CC6)CC(C(=O)NCc6ccc8c(c6)CN(C6CCC(=O)NC6=O)C8=O)C7)cc5)cc4)c3)cn2)CC1` (stereo not drawn) [Compound 415], the DC50 is greater than 1 µM.

As to `CC1(N)CCN(c2cnc(Sc3cccc(NC(=O)c4ccc(C5=CCC(N6CC=C(c7ccnc(C(=O)NCc8ccc9c(c8)CN(C8CCC(=O)NC8=O)C9=O)c7)C6)CC5)c(F)c4)c3)cn2)CC1` (stereo not drawn) [Compound 416], the DC50 was greater than 1 µM.

For the molecule `CC1(N)CCN(c2cnc(Sc3cccc(NC(=O)c4ccc(N5CCC(N6CC=C(c7ncc(C(=O)NCc8ccc9c(c8)CN(C8CCC(=O)NC8=O)C9=O)o7)CC6)CC5)c(F)c4)c3)cn2)CC1` (stereo not drawn) [Compound 417], the DC50 is greater than 1 µM.

Take `CC1(N)CCN(c2cnc(Sc3cccc(NC(=O)C4CCC(N5CCC(N6CC=C(c7ccc(C(=O)NCc8ccc9c(c8)CN(C8CCC(=O)NC8=O)C9=O)nc7)CC6)C(F)C5)CC4)c3)cn2)CC1` (stereo not drawn) [Compound 420]: the DC50 was less than 0.1 µM.

Take `CC1(N)CCN(c2cnc(Sc3cccc(NC(=O)c4ccc(-c5ccc(N6CCC(C7=CCC(C(=O)NCc8ccc9c(c8)CN(C8CCC(=O)NC8=O)C9=O)CC7)CC6)cc5)cc4)c3)cn2)CC1` (stereo not drawn) [Compound 423]: the DC50 was greater than 1 µM.

As for `COC(=O)NC1(C)CCN(c2cnc(Sc3cccc(NC(=O)c4ccc(N5CCC(N6CC=C(c7ccc(C(=O)NCc8ccc9c(c8)CN(C8CCC(=O)NC8=O)C9=O)nc7)CC6)CC5)c(F)c4)c3)cn2)CC1` (stereo not drawn) [Compound 424], the 50% degradation concentration (DC50) is greater than 1 µM.

For the molecule `CC(=O)NC1(C)CCN(c2cnc(Sc3cccc(NC(=O)c4ccc(N5CCC(N6CC=C(c7ccc(C(=O)NCc8ccc9c(c8)CN(C8CCC(=O)NC8=O)C9=O)nc7)CC6)CC5)c(F)c4)c3)cn2)CC1` (stereo not drawn) [Compound 425], the DC50 was greater than 1 µM.

Take `CC1(N)CCN(c2cnc(Sc3cccc(NC(=O)c4ccc(N5CCC(N6C=C(c7ncc(C(=O)NCc8ccc9c(c8)CN(C8CCC(=O)NC8=O)C9=O)o7)CC6)CC5)c(F)c4)c3)cn2)CC1` (stereo not drawn) [Compound 426]: the 50% degradation concentration (DC50) was greater than 1 µM.

Take `C[C@H](N)C(=O)N[C@@H](Cc1ccccc1)C(=O)NC1(C)CCN(c2cnc(Sc3cccc(NC(=O)c4ccc(N5CCC(N6CC=C(c7ccc(C(=O)NCc8ccc9c(c8)CN(C8CCC(=O)NC8=O)C9=O)nc7)CC6)CC5)cc4)c3)cn2)CC1` (stereo partly drawn) [Compound 427]: the half-maximal degradation concentration (DC50) is greater than 1 µM.

For `CC1(N)CCN(c2cnc(Sc3cccc(NC(=O)c4ccc(N5CCC(N6CC=C(c7cnc(C(=O)NCc8ccc9c(c8)CN(C8CCC(=O)NC8=O)C9=O)c(F)c7)CC6)CC5)nc4)c3)cn2)CC1` (stereo not drawn) [Compound 428], the DC50 lay in the range of 0.1 to 1 µM.

For `CC1(N)CCN(c2cnc(Sc3cccc(NC(=O)c4cnc(N5CCC(N6CC=C(c7ccc(C(=O)NCc8ccc9c(c8)CN(C8CCC(=O)NC8=O)C9=O)nn7)CC6)CC5)cn4)c3)cn2)CC1` (stereo not drawn) [Compound 429], the half-maximal degradation concentration (DC50) is 0.1 to 1 µM.

`CC1(N)CCN(c2cnc(Sc3cccc(NC(=O)c4cnc(N5CCC(N6CC=C(c7ccc(C(=O)NCc8ccc9c(c8)CN(C8CCC(=O)NC8=O)C9=O)nc7)CC6)CC5)cn4)c3)cn2)CC1` (stereo not drawn) [Compound 430]: the 50% degradation concentration (DC50) lay within 0.1 to 1 µM.

For `CC1(N)CCN(c2cnc(Sc3cccc(NC(=O)c4ccc(N5CCC(N6CC=C(c7cnc(C(=O)NCc8ccc9c(c8)CN(C8CCC(=O)NC8=O)C9=O)c(Cl)c7)CC6)CC5)nc4)c3)cn2)CC1` (stereo not drawn) [Compound 431], the DC50 is 0.1 to 1 µM.

Turning to `CC1(N)CCN(c2cnc(Sc3cccc(NC(=O)c4ccc(C5=CCC(N6CC=C(c7ccc(C(=O)NCc8ccc9c(c8)CN(C8CCC(=O)NC8=O)C9=O)nc7)CC6)CC5)nc4)c3)cn2)CC1` (stereo not drawn) [Compound 432], the 50% degradation concentration (DC50) is greater than 1 µM.

As to `COCC1(N)CCN(c2cnc(Sc3cccc(NC(=O)c4ccc(N5CCC(N6CC=C(c7ccc(C(=O)NCc8ccc9c(c8)CN(C8CCC(=O)NC8=O)C9=O)nn7)CC6)CC5)cc4)c3)cn2)CC1` (stereo not drawn) [Compound 433], the DC50 is greater than 1 µM.

Turning to `COCC1(N)CCN(c2cnc(Sc3cccc(NC(=O)c4ccc(N5CCC(N6CC=C(c7ccc(C(=O)NCc8ccc9c(c8)CN(C8CCC(=O)NC8=O)C9=O)nc7)CC6)CC5)cc4)c3)cn2)CC1` (stereo not drawn) [Compound 434], the 50% degradation concentration (DC50) is less than 0.1 µM.

For the molecule `CC1(N)CCN(c2cnc(Sc3cccc(NC(=O)c4ccc(N5CCC(N6CCN(c7ccc(C(=O)NCc8ccc9c(c8)CN(C8CCC(=O)NC8=O)C9=O)nc7)CC6)CC5)nc4)c3)cn2)CC1` (stereo not drawn) [Compound 436], the DC50 was 0.1 to 1 µM.

`CC1(N)CCN(c2cnc(Sc3cccc(NC(=O)c4ccc(N5CCC(N6CCN(c7ccc(C(=O)NCc8ccc9c(c8)CN(C8CCC(=O)NC8=O)C9=O)nn7)CC6)CC5)nc4)c3)cn2)CC1` (stereo not drawn) [Compound 437]: the DC50 is less than 0.1 µM.

In the case of `Cc1cc(N2CCC(N3CC=C(c4cnc(C(=O)NCc5ccc6c(c5)CN(C5CCC(=O)NC5=O)C6=O)c(F)c4)CC3)CC2)ccc1C(=O)Nc1cccc(Sc2cnc(N3CCC(C)(N)CC3)cn2)c1` (stereo not drawn) [Compound 438], the half-maximal degradation concentration (DC50) is less than 0.1 µM.

Turning to `Cc1cc(C(=O)Nc2cccc(Sc3cnc(N4CCC(C)(N)CC4)cn3)c2)ccc1N1CCC(N2CC=C(c3cnc(C(=O)NCc4ccc5c(c4)CN(C4CCC(=O)NC4=O)C5=O)c(Cl)c3)CC2)CC1` (stereo not drawn) [Compound 440], the half-maximal degradation concentration (DC50) is greater than 1 µM.

As for `Cc1cc(C(=O)Nc2cccc(Sc3cnc(N4CCC(C)(N)CC4)cn3)c2)ccc1N1CCC(N2CC=C(c3ccc(C(=O)NCc4ccc5c(c4)CN(C4CCC(=O)NC4=O)C5=O)nc3Cl)CC2)CC1` (stereo not drawn) [Compound 441], the DC50 is greater than 1 µM.

As for `Cc1cc(N2CCC(N3CC=C(c4ccc(C(=O)NCc5ccc6c(c5)CN(C5CCC(=O)NC5=O)C6=O)nc4Cl)CC3)CC2)ccc1C(=O)Nc1cccc(Sc2cnc(N3CCC(C)(N)CC3)cn2)c1` (stereo not drawn) [Compound 444], the 50% degradation concentration (DC50) was less than 0.1 µM.

`CC1(N)CCN(c2cnc(Sc3cccc(NC(=O)c4ccc(N5CCC(N6CCN(c7ccc(C(=O)NCc8ccc9c(c8)CN(C8CCC(=O)NC8=O)C9=O)nn7)CC6)CC5)cn4)c3)cn2)CC1` (stereo not drawn) [Compound 447]: the DC50 is greater than 1 µM.

In the case of `CC1(N)CCN(c2cnc(Sc3cccc(NC(=O)c4ncc(N5CCC(N6CCN(c7ccc(C(=O)NCc8ccc9c(c8)CN(C8CCC(=O)NC8=O)C9=O)nn7)CC6)CC5)cn4)c3)cn2)CC1` (stereo not drawn) [Compound 449], the 50% degradation concentration (DC50) is less than 0.1 µM.

On to `CC1(N)CCN(c2cnc(Sc3cccc(NC(=O)c4ccc(N5CCC(N6CCN(c7ccc(C(=O)NCc8ccc9c(c8)CN(C8CCC(=O)NC8=O)C9=O)nc7)CC6)CC5)nn4)c3)cn2)CC1` (stereo not drawn) [Compound 450], for which the DC50 was less than 0.1 µM.

Take `Cc1cc(C(=O)Nc2cccc(Sc3cnc(N4CCC(C)(N)CC4)cn3)c2)ccc1N1CCC(N2CC=C(c3cnc(C(=O)NCc4ccc5c(c4)CN(C4CCC(=O)NC4=O)C5=O)cc3Cl)CC2)CC1` (stereo not drawn) [Compound 452]: the DC50 was less than 0.1 µM.

For `Cc1cc(C(=O)Nc2cccc(Sc3cnc(N4CCC(C)(N)CC4)cn3)c2)ccc1N1CCC(N2CC=C(c3ccc(C(=O)NCc4ccc5c(c4)CN(C4CCC(=O)NC4=O)C5=O)cc3)CC2)CC1` (stereo not drawn) [Compound 453], the DC50 lay in the range of 0.1 to 1 µM.

Regarding `Cc1cc(N2CCC(N3CC=C(c4ccc(C(=O)NCc5ccc6c(c5)CN(C5CCC(=O)NC5=O)C6=O)cc4)CC3)CC2)ccc1C(=O)Nc1cccc(Sc2cnc(N3CCC(C)(N)CC3)cn2)c1` (stereo not drawn) [Compound 454], the DC50 lay within 0.1 to 1 µM.

In the case of `Cc1cc(C(=O)NCc2ccc3c(c2)CN(C2CCC(=O)NC2=O)C3=O)ncc1C1=CCN(C2CCN(c3ccc(C(=O)Nc4cccc(Sc5cnc(N6CCC(C)(N)CC6)cn5)c4)cc3C)CC2)CC1` (stereo not drawn) [Compound 456], the DC50 was 0.1 to 1 µM.

On to `Cc1cc(C(=O)NCc2ccc3c(c2)CN(C2CCC(=O)NC2=O)C3=O)ncc1C1=CCN(C2CCN(c3ccc(C(=O)Nc4cccc(Sc5cnc(N6CCC7(CC6)CO[C@@H](C)[C@H]7N)cn5)c4)cc3F)CC2)CC1` (stereo partly drawn) [Compound 458], for which the half-maximal degradation concentration (DC50) was greater than 1 µM.
